Target: T1, tyrosinase (Mus musculus, UniProt P11344)
T1 construct: the supernatant obtained constitutes the cell lysate used as tyrosinase source in the enzymatic assay; endogenous in cells; host or cells: B16F1 murine melanoma cells (alpha-MSH stimulated), detergent lysate supernatant
T1 sequence (P11344 19-533): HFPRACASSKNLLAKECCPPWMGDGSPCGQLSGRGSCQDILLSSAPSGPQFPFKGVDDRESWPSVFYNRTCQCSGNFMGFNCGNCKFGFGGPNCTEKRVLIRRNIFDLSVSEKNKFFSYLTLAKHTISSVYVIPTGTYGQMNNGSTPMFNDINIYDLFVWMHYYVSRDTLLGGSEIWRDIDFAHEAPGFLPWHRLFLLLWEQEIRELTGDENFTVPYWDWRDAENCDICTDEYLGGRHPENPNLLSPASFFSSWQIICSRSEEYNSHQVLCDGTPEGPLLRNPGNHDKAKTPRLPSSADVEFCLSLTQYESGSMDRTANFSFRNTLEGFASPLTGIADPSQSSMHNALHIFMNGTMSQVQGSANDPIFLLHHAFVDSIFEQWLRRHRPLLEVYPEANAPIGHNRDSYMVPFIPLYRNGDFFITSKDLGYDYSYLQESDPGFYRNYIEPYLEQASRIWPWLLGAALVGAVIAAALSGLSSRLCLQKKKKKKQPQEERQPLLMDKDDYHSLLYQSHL
Experiment: Tyrosinase activity inhibition assay (B16F1 cell lysate, L-tyrosine substrate, MBTH, 520 nm)
Format: biochemical
Conditions: lysate of B16F1 cells (murine melanoma line), L-DOPA cofactor, 37° C., reading at 520 nm after 6 hours, read-out: Tyrosine hydroxylase/Dopa oxidase IC50
Method: The activity of the inhibitors is measured starting from a lysate of B16F1 cells (murine melanoma line). In the presence of the L-tyrosine substrate, the tyrosinase present in these cells catalyses the hydroxylation of L-tyrosine to give L-DOPA and then the oxidation of the L-DOPA to give dopaquinone. In the presence of MBTH (3-methyl-2-benzothiazolinone hydrazone), the dopaquinone is trapped so as to form a pink complex which absorbs at 520 nm.
The B16F1 cells are cultured in DMEM medium+10% foetal calf serum+10^−9 M α-MSH for 4 days at 37° C. under 7% CO2. They are treated with trypsin, washed with PBS, counted and pelleted. The pellet is taken up at 10^7 cells/ml in lysis buffer (10 mM sodium phosphate, pH 6.8-1% Igepal) and the suspension is treated with ultrasound for 10 seconds. After centrifugation for 30 minutes at 4000 rpm, the supernatant obtained constitutes the cell lysate used as tyrosinase source in the enzymatic assay.
The assays are carried out in duplicate in 384-well plates in a total volume of 50 μl. Each well contains: […]
The plate is incubated at 37° C. and a spectrophotometric reading is carried out at 520 nm after incubating for 6 hours. To avoid any possible absorption of the products, the system uses corrected absorbance (absorbance at time 6 h—absorbance at time zero). […]

Row | IC50 [nM] | SMILES
1 | 300 | Cc1ccc(-c2c[nH]c(=S)[nH]2)s1 [Compound 3, 4-(5-methylthiophen-2-yl)-1,3-dihydroimidazole-2-thione]
2 | 100 | Cc1csc(-c2c[nH]c(=S)[nH]2)c1 [Compound 4, 4-(4-methylthiophen-2-yl)-1,3-dihydro-imidazole-2-thione]

Reference: patent US7989483B2, “4-heteroarylimidazole-2-thione tyrosinase inhibitors and pharmaceutical/cosmetic applications thereof” (Galderma Research & Development, priority 2007, dated 2011)
